Data reported in US11331369B2, “Endoparasitic depsipeptides” (Zoetis Services LLC, priority 2017, dated 2022).

system: microfilariae of Dirofilaria immitis; assay: Dirofilaria immitis, Microfilaria (DiMF) In vitro Assay; type: cell-based; conditions: 72 h, read-out: DiMF Minimum Effective Dose (MED), approximately 72 hours incubation, microfilariae assessed for survival or paralysis

Row | SMILES | minimal effective concentration [µM]
1 | Cc1nn(Cc2ccc(C[C@H]3OC(=O)[C@H](CC(C)C)N(C)C(=O)[C@@H](C)OC(=O)[C@H](CC(C)C)N(C)C(=O)[C@@H](Cc4ccccc4)OC(=O)[C@H](CC(C)C)N(C)C(=O)[C@@H](C)OC(=O)[C@H](CC(C)C)N(C)C3=O)cc2)c(C)c1O [Example 2-44, (3S,6R,9S,12R,15S,18R,21S,24R)-6-benzyl-18-(4-((4-hydroxy-3,5-dimethyl-1H-pyrazol-1-yl)methyl)benzyl)-3,9,15,21-tetraisobutyl-4,10,12,16,22,24-hexamethyl-1,7,13,19-tetraoxa-4,10,16,22-tetraazacyclotetracosan-2,5,8,11,14,17,20,23-octaone] | 0.001 to 0.01
2 | CC(C)C[C@H]1C(=O)O[C@H](Cc2ccc(Cn3cc(-c4cnccn4)cn3)cc2)C(=O)N(C)[C@@H](CC(C)C)C(=O)O[C@H](C)C(=O)N(C)[C@@H](CC(C)C)C(=O)O[C@H](Cc2ccccc2)C(=O)N(C)[C@@H](CC(C)C)C(=O)O[C@H](C)C(=O)N1C [Example 2-46, (3S,6R,9S,12R,15S,18R,21S,24R)-6-benzyl-3,9,15,21-tetraisobutyl-4,10,12,16,22,24-hexamethyl-18-(4-((4-(pyrazin-2-yl)-1H-pyrazol-1-yl)methyl)benzyl)-1,7,13,19-tetraoxa-4,10,16,22-tetraazacyclotetracosan-2,5,8,11,14,17,20,23-octaone] | 0.001 to 0.01
3 | CC(C)C[C@H]1C(=O)O[C@H](Cc2ccc(Cn3cc(-c4ccccn4)cn3)cc2)C(=O)N(C)[C@@H](CC(C)C)C(=O)O[C@H](C)C(=O)N(C)[C@@H](CC(C)C)C(=O)O[C@H](Cc2ccccc2)C(=O)N(C)[C@@H](CC(C)C)C(=O)O[C@H](C)C(=O)N1C [Example 2-47, (3S,6R,9S,12R,15S,18R,21S,24R)-6-benzyl-3,9,15,21-tetraisobutyl-4,10,12,16,22,24-hexamethyl-18-(4-((4-(pyridin-2-yl)-1H-pyrazol-1-yl)methyl)benzyl)-1,7,13,19-tetraoxa-4,10, 16,22-tetraazacyclotetracosan-2,5,8,11,14,17,20,23-octaone] | 0.001 to 0.01
4 | Cc1nn(Cc2ccc(C[C@H]3OC(=O)[C@H](CC(C)C)N(C)C(=O)[C@@H](C)OC(=O)[C@H](CC(C)C)N(C)C(=O)[C@@H](Cc4ccccc4)OC(=O)[C@H](CC(C)C)N(C)C(=O)[C@@H](C)OC(=O)[C@H](CC(C)C)N(C)C3=O)cc2)c(C)c1Cl [Example 2-50, (3S,6R,9S,12R,15S,18R,21S,24R)-6-benzyl-18-(4-((4-chloro-3,5-dimethyl-1H-pyrazol-1-yl)methyl)benzyl)-3,9,15,21-tetraisobutyl-4,10,12,16,22,24-hexamethyl-1,7,13,19-tetraoxa-4,10,16,22-tetraazacyclotetracosan-2,5,8,11,14,17,20,23-octaone] | 0.01 to 0.1
5 | CC(=O)NCc1cnn(Cc2ccc(C[C@H]3OC(=O)[C@H](CC(C)C)N(C)C(=O)[C@@H](C)OC(=O)[C@H](CC(C)C)N(C)C(=O)[C@@H](Cc4ccccc4)OC(=O)[C@H](CC(C)C)N(C)C(=O)[C@@H](C)OC(=O)[C@H](CC(C)C)N(C)C3=O)cc2)c1 [Example 2-52, N-((1-(4-(((2R,5S,8R,11S,14R,17S,20R,23S)-14-benzyl-5,11,17,23-tetraisobutyl-4,8,10,16,20,22-hexamethyl-3,6,9,12,15,18,21,24-octaoxo-1,7,13,19-tetraoxa-4,10,16,22-tetraazacyclotetracosan-2-yl)methyl)benzyl)-1H-pyrazol-4-yl)methyl)acetamide] | 0.01 to 0.1
6 | CC(C)C[C@H]1C(=O)O[C@H](Cc2ccc(Cn3nc(C(C)C)cc3C(C)C)cc2)C(=O)N(C)[C@@H](CC(C)C)C(=O)O[C@H](C)C(=O)N(C)[C@@H](CC(C)C)C(=O)O[C@H](Cc2ccccc2)C(=O)N(C)[C@@H](CC(C)C)C(=O)O[C@H](C)C(=O)N1C [Example 2-54, (3S,6R,9S,12R,15S,18R,21S,24R)-6-benzyl-18-(4-((3,5-diisopropyl-1H-pyrazol-1-yl)methyl)benzyl)-3,9,15,21-tetraisobutyl-4,10,12,16,22,24-hexamethyl-1,7,13,19-tetraoxa-4,10,16,22-tetraazacyclotetracosan-2,5,8,11,14,17,20,23-octaone] | 0.01 to 0.1
7 | CC(C)C[C@H]1C(=O)O[C@H](Cc2ccc(Cn3ccc(-c4ccccc4)n3)cc2)C(=O)N(C)[C@@H](CC(C)C)C(=O)O[C@H](C)C(=O)N(C)[C@@H](CC(C)C)C(=O)O[C@H](Cc2ccccc2)C(=O)N(C)[C@@H](CC(C)C)C(=O)O[C@H](C)C(=O)N1C [Example 2-56, (3S,6R,9S,12R,15S,18R,21S,24R)-6-benzyl-3,9,15,21-tetraisobutyl-4,10,12,16,22,24-hexamethyl-18-(4-((3-phenyl-1H-pyrazol-1-yl)methyl)benzyl)-1,7,13,19-tetraoxa-4,10,16,22-tetraazacyclotetracosan-2,5,8,11,14,17,20,23-octaone] | 0.01 to 0.1
8 | CC(C)C[C@H]1C(=O)O[C@H](Cc2ccc(Cn3ccc(Br)n3)cc2)C(=O)N(C)[C@@H](CC(C)C)C(=O)O[C@H](C)C(=O)N(C)[C@@H](CC(C)C)C(=O)O[C@H](Cc2ccccc2)C(=O)N(C)[C@@H](CC(C)C)C(=O)O[C@H](C)C(=O)N1C [Example 2-57, (3S,6R,9S,12R,15S,18R,21S,24R)-6-benzyl-18-(4-((3-bromo-1H-pyrazol-1-yl)methyl)benzyl)-3,9,15,21-tetraisobutyl-4,10,12,16,22,24-hexamethyl-1,7,13,19-tetraoxa-4,10,16,22-tetraazacyclotetracosan-2,5,8,11,14,17,20,23-octaone] | 0.01 to 0.1
9 | CC(C)C[C@H]1C(=O)O[C@H](Cc2ccc(Cn3ccc(C(F)(F)F)n3)cc2)C(=O)N(C)[C@@H](CC(C)C)C(=O)O[C@H](C)C(=O)N(C)[C@@H](CC(C)C)C(=O)O[C@H](Cc2ccccc2)C(=O)N(C)[C@@H](CC(C)C)C(=O)O[C@H](C)C(=O)N1C [Example 2-58, (3S,6R,9S,12R,15S,18R,21S,24R)-6-benzyl-3,9,15,21-tetraisobutyl-4,10,12,16,22,24-hexamethyl-18-(4-((3-(trifluoromethyl)-1H-pyrazol-1-yl)methyl)benzyl)-1,7,13,19-tetraoxa-4,10,16,22-tetraazacyclotetracosan-2,5,8,11,14,17,20,23-octaone] | 0.01 to 0.1
10 | CC(C)C[C@H]1C(=O)O[C@H](Cc2ccc(Cn3cc(CN)cn3)cc2)C(=O)N(C)[C@@H](CC(C)C)C(=O)O[C@H](C)C(=O)N(C)[C@@H](CC(C)C)C(=O)O[C@H](Cc2ccccc2)C(=O)N(C)[C@@H](CC(C)C)C(=O)O[C@H](C)C(=O)N1C [Example 2-59, (3S,6R,9S,12R,15S,18R,21S,24R)-6-(4-((4-(aminomethyl)-1H-pyrazol-1-yl)methyl)benzyl)-18-benzyl-3,9,15,21-tetraisobutyl-4,10,12,16,22,24-hexamethyl-1,7,13,19-tetraoxa-4,10,16,22-tetraazacyclotetracosan-2,5,8,11,14,17,20,23-octaone] | 0.01 to 0.1
11 | Cc1nn(Cc2ccc(C[C@H]3OC(=O)[C@H](CC(C)C)N(C)C(=O)[C@@H](C)OC(=O)[C@H](CC(C)C)N(C)C(=O)[C@@H](Cc4ccccc4)OC(=O)[C@H](CC(C)C)N(C)C(=O)[C@@H](C)OC(=O)[C@H](CC(C)C)N(C)C3=O)cc2)c(C)c1S(=O)(=O)N1CCCCC1 [Example 2-60, (3S,6R,9S,12R,15S,18R,21S,24R)-6-benzyl-18-(4-((3,5-dimethyl-4-(piperidin-1-ylsulfonyl)-1H-pyrazol-1-yl)methyl)benzyl)-3,9,15,21-tetraisobutyl-4,10,12,16,22,24-hexamethyl-1,7,13,19-tetraoxa-4,10,16,22-tetraazacyclotetracosan-2,5,8,11,14,17,20,23-octaone] | 0.01 to 0.1
12 | CC(C)C[C@H]1C(=O)O[C@H](Cc2ccc(Cn3cc(C4=CCCC4)cn3)cc2)C(=O)N(C)[C@@H](CC(C)C)C(=O)O[C@H](C)C(=O)N(C)[C@@H](CC(C)C)C(=O)O[C@H](Cc2ccccc2)C(=O)N(C)[C@@H](CC(C)C)C(=O)O[C@H](C)C(=O)N1C [Example 2-61, (3S,6R,9S,12R,15S,18R,21S,24R)-6-benzyl-18-(4-((4-(cyclopent-1-en-1-yl)-1H-pyrazol-1-yl)methyl)benzyl)-3,9,15,21-tetraisobutyl-4,10,12,16,22,24-hexamethyl-1,7,13,19-tetraoxa-4,10,16,22-tetraazacyclotetracosan-2,5,8,11,14,17,20,23-octaone] | 0.01 to 0.1
13 | CC(C)C[C@H]1C(=O)O[C@H](Cc2ccc(Cn3nccc3-c3ccccc3)cc2)C(=O)N(C)[C@@H](CC(C)C)C(=O)O[C@H](C)C(=O)N(C)[C@@H](CC(C)C)C(=O)O[C@H](Cc2ccccc2)C(=O)N(C)[C@@H](CC(C)C)C(=O)O[C@H](C)C(=O)N1C [Example 2-67, (3S,6R,9S,12R,15S,18R,21S,24R)-6-benzyl-3,9,15,21-tetraisobutyl-4,10,12,16,22,24-hexamethyl-18-(4-((5-phenyl-1H-pyrazol-1-yl)methyl)benzyl)-1,7,13,19-tetraoxa-4,10,16,22-tetraazacyclotetracosan-2,5,8,11,14,17,20,23-octaone] | 0.01 to 0.1
14 | CC(C)C#Cc1cnn(Cc2ccc(C[C@H]3OC(=O)[C@H](CC(C)C)N(C)C(=O)[C@@H](C)OC(=O)[C@H](CC(C)C)N(C)C(=O)[C@@H](Cc4ccccc4)OC(=O)[C@H](CC(C)C)N(C)C(=O)[C@@H](C)OC(=O)[C@H](CC(C)C)N(C)C3=O)cc2)c1 [Example 2-70, (3S,6R,9S,12R,15S,18R,21S,24R)-6-benzyl-3,9,15,21-tetraisobutyl-4,10,12,16,22,24-hexamethyl-18-(4-((4-(3-methylbut-1-yn-1-yl)-1H-pyrazol-1-yl)methyl)benzyl)-1,7,13,19-tetraoxa-4,10,16,22-tetraazacyclotetracosan-2,5,8,11,14,17,20,23-octaone] | 0.01 to 0.1
